Data as given in publication PMC10627047, “Flavone-based dual PARP-Tubulin inhibitor manifesting efficacy against endometrial cancer” (Journal of Enzyme Inhibition and Medicinal Chemistry, 2023).

Tests used:
Ishikawa cells [1] = assay: Mitochondrial membrane potential (rhodamine 123 staining); assay type: cell-based, human; details: Ishikawa cells, 0.1, 0.5 and 1 μM, 24 h
Method: Mitochondrial membrane potential was measured by rhodamine-123 (RH-123) staining. Ishikawa cells were treated at 0.1, 0.5, and 1 μM of compound 14. Rhodamine dyes accumulate within active and polarised mitochondria under physiological conditions, resulting in robust fluorescence signals. A decline in rhodamine fluorescence intensity is observed when the dyes fail to accumulate within the mitochondria. This happens when the mitochondrial transmembrane potential is compromised. […] The decreased fluorescence patterns associated with apoptotic cell death indicate progressive dissipation of the mitochondrial transmembrane potential (Figure 12).
Rhodamine staining was employed to investigate apoptosis induced by compound 14 in Ishikawa cells. Under physiological conditions, rhodamine dyes are known to accumulate within active and polarised mitochondria, resulting in robust fluorescence signals. However, when the mitochondrial transmembrane potential is compromised the dyes fail to accumulate within the mitochondria, leading to a decline in rhodamine fluorescence intensity. The Rhodamine staining protocol followed was as follows: Ishikawa cells were treated at 0.1, 0.5, and 1 μM for 24 h, and RH-123 (1 μg) (Cat No. R8004) was added 30 min before the termination of the experiment and then washed with PBS before analysis on a fluorescence microscope.[61]

Tubulin = biological target: T1, Tubulin (Sus scrofa, UniProt P02550+P02554); assay: In vitro microtubule assembly (tubulin polymerisation) assay; assay type: biochemical; details: treatment concentrations 0.1, 1, 5, 10 μM; mean ± SD of three experiments
T1 construct: purchased Cytoskeleton T240 (kit BK006P)
T1 sequence (P02550 whole entry): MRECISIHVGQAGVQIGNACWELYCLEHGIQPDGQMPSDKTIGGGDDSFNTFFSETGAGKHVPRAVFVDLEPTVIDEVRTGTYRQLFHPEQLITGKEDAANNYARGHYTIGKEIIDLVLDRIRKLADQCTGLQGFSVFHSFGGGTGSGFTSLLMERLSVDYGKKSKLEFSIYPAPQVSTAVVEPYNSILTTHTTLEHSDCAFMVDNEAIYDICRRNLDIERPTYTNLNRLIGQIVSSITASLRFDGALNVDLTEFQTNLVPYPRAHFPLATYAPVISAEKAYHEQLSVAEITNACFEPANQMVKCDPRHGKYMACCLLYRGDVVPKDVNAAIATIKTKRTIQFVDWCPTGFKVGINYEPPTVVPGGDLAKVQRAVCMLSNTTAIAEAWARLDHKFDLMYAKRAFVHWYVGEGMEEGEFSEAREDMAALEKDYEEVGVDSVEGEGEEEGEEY
T1 sequence (P02554 whole entry): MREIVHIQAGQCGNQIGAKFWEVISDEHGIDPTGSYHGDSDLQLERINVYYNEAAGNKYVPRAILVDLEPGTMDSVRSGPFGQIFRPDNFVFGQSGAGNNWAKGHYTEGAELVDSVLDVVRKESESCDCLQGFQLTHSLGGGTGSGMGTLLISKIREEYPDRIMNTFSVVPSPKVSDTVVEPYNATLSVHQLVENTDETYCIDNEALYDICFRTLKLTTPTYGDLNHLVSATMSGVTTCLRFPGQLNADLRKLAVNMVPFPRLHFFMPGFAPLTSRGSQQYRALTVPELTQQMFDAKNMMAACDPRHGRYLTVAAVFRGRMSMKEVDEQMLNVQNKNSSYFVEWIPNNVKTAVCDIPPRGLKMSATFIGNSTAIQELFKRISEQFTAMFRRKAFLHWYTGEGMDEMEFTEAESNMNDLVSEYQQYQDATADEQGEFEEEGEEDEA
Method: The assay was performed using the tubulin polymerisation kit (BK006P,Cytoskeleton). Pure tubulin (cat. # T240) was equilibrated in 80 mM PIPES, 1 mM EGTA, 1 mM MgCl2, pH 6.8 buffer (BRB80) and centrifuged at 75 000 rpm for 10 min in an TLA-100 rotor in a centrifuge.

Ishikawa cells [2] = assay: Acridine orange staining, autophagy; assay type: cell-based, human; details: Ishikawa cells, 0.1, 0.5 and 1 µM
Method: Compound 14 was evaluated for its ability to induce autophagy by acridine orange staining assay. […] This shift towards red fluorescence represents an elevation in autophagic flux, reflecting an active process of cellular degradation and recycling.
The Autophagy induction ability of compound 14 was assessed by acridine orange staining which is used to measure the autophagic acidic vesicular organnelles. Ishikawa cell were seeded in a six-well plate and treated with compound 14 for 48 h. Incubation of the cells was done with 1 mg/mL Acridine orange (Cat no. A9231) before the termination of the experiment. Cells were then washed with PBS and then analysed with a fluorescence microscope. […] A9231.

Ishikawa cells [3] = assay: Cell cycle analysis (flow cytometry); assay type: cell-based, human; details: 0.5 µM and 1 µM, 48 h, vs control group
Method: Furthermore, the regulatory effect of compound 14 in the cell cycle distribution of Ishikawa cancer cells was evaluated via flow cytometric analysis. Ishikawa cells seeded on a 6-well plate (3 × 10^5 cells/well) were treated with compound 14 for 48 h. After 48 h treatment of Ishikawa cells with compound 14, the cell cycle started to be arrested at the G2/M phase.
Cells were treated with compound 14 (10, 50, 100, 500 and 1000 nM) for […], collected and washed once with PBS. The pellet was then fixed in 70% ethanol overnight, followed by one washing with PBS and incubation with RNAse A for 90 min at 37 °C. Cells were then stained with PI and acquired in FACS. Analysis of the data was done by Modfit software (Verity Software House Inc., Topsham, ME) for the proportions of different cell cycle phases.[69]

Ishikawa cells [4] = assay: Intracellular ROS (DCFDA staining); assay type: cell-based, human; details: Ishikawa cells, 100, 500 and 1000 nM, 24 h, vs untreated control
Source text: The intracellular ROS levels in control and compound 14-treated cells were examined using the DCFDA fluorescent dye.
Dichlorodihydrofluorescin diacetate (DCFHDA) is a fluorogenic dye that measures hydroxyl, peroxyl, and other reactive oxygen species (ROS) activity within the cell. The oxidative conversion of DCFH-DA to DCF (2′, 7′ -dichlorofluorescein) leads to the detection of intracellular ROS. As such, an increase in intracellular ROS is indicative of apoptosis in cancer cells Ishikawa cells were treated with compound-14 at 100, 500, and 1000 nM concentrations for 24 h. After 24h cells were stained with DCFHDA (20 µM) (Cat no, 287810) for 45 min. After 45 min, cells were washed with PBS buffer and analysed with a fluorescence microscope.

`O=c1cc(-c2ccc(F)cc2)oc2cc(-c3ccoc3)ccc12` [Compound 14, 2–(4-fluorophenyl)-7-(furan-3-yl)-4H-chromen-4-one] was tested, and the “Mitochondrial membrane potential (rhodamine 123 fluorescence)” value (Ishikawa cells [1]) was “reduction in rhodamine fluorescence in a concentration-dependent manner”, the IC50 (Tubulin) was 1.4 ± 0.3 µM and the “Autophagy induction (acridine orange staining)” value (Ishikawa cells [2]) was “induces autophagy by increasing autophagic flux in a concentration-dependent manner”. For the same molecule, the “Cell cycle distribution (G2/M phase arrest)” value (Ishikawa cells [3]) was “significant increase in G2/M phase cell cycle arrest” and the “Intracellular ROS levels (DCFDA fluorescence)” value (Ishikawa cells [4]) was “significant increase in fluorescence intensity”.
